Activity calls are given as the source filed them. The rule behind the calls is not given here.

In assay [1] the target is T1, Hypoxia-inducible factor 1-alpha (Homo sapiens, UniProt Q16665). The assay is described as follows: Inhibition of hypoxia-induced HIF1alpha transcriptional activity in HEK293 cells incubated for 16 hrs by hypoxia response element-driven luciferase reporter gene assay. Format: cell-based. (In general: A reporter such as luciferase makes a cellular process visible.)
Target sequence in this assay (Q16665 whole entry): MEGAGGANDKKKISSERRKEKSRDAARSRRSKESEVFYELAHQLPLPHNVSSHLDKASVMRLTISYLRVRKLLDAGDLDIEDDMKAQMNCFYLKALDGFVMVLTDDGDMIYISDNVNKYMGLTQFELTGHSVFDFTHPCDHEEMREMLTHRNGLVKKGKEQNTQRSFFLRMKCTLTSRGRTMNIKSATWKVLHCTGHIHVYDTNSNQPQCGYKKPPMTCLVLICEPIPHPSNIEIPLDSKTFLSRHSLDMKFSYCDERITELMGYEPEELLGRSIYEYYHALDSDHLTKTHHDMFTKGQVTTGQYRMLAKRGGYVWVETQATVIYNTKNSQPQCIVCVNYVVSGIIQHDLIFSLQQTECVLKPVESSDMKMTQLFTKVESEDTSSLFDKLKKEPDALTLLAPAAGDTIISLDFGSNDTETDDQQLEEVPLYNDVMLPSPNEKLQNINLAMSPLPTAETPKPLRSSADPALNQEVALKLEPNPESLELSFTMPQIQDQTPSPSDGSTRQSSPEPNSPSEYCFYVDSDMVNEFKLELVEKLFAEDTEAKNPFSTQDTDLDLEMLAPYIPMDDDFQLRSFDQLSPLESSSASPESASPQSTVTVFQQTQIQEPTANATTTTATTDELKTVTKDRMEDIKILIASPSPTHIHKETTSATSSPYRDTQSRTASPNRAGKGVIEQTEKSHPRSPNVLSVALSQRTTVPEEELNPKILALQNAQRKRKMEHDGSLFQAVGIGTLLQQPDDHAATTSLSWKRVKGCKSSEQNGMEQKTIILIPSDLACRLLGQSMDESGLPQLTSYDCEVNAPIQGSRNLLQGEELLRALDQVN
Assay [2] addresses T1, Hypoxia-inducible factor 1-alpha. In words: Inhibition of HIF1alpha accumulation in human HeLa cells incubated for 4 hrs under hypoxic conditions by Western blot. Format: cell-based. A general note: A western blot detects proteins with antibodies after separation by electrophoresis.
Target sequence in this assay (Q16665 whole entry, looked up): as the sequence (Q16665 whole entry) above
For assay [3], the system named is HeLa. The assay is described as follows: Effect on HIF1alpha mRNA expression in human HeLa cells incubated for 2 hrs under hypoxic conditions by RT-PCR. Format: functional, cell-based.
Assay [4] has as its system HeLa. The assay is described as follows: Inhibition of hypoxia-induced VEGF secretion in human HeLa cells incubated for 12 hrs under hypoxic conditions by ELISA. Format: functional, cell-based. For orientation: In an ELISA, binding on a coated surface is turned into a signal by an enzyme label.
The test system of assay [5] is HeLa. The assay is described as follows: Effect on HIF1beta protein level in human HeLa cells incubated for 4 hrs under hypoxic conditions by Western blot.

Consider `COc1cccc(CNc2ccc(NC(=O)Nc3ccccc3)cc2)c1`, for which, in assay [1], half-maximal inhibition (IC50) was put at 52.1 µM.

For `COc1ccccc1CNc1ccc(NC(=O)Nc2ccccc2)cc1`, in assay [1], half-maximal inhibition (IC50) required 17.4 µM.

Regarding `COc1ccc(CNc2ccc(NC(=O)Nc3ccccc3)cc2)cc1`, in assay [1], the IC50 came out at 23 µM.

In assay [1], `COC(=O)c1cc(CNc2ccc(NC(=O)Nc3ccccc3)cc2)cc(C(=O)OC)c1` came in with a concentration for half-maximal inhibition (IC50) of 15.1 µM.

For the compound `COC(=O)c1ccc(CNc2ccc(NC(=O)Nc3ccccc3)cc2)cc1`, in assay [1], the half-inhibitory concentration (IC50) is above 100 µM.

`COC(=O)c1ccc(OC)c(CNc2ccc(NC(=O)Nc3ccccc3)cc2)c1` displayed an IC50 in assay [1] of 22.1 µM.

As to `COC(=O)c1ccccc1CNc1ccc(NC(=O)Nc2ccccc2)cc1`, the IC50 in assay [1] was 32.5 µM.

In assay [1], `COc1ccc(OC)c(CNc2ccc(NC(=O)Nc3ccccc3)cc2)c1` yielded an IC50 of 29.6 µM.

For the compound `O=C(Nc1ccccc1)Nc1ccc(NCc2ccc(C(=O)O)cc2)cc1`, in assay [1], the half-inhibitory concentration (IC50) is above 100 µM.

In the case of `O=C(Nc1ccccc1)Nc1ccc(NCc2ccc(O)cc2)cc1`, 35.5 µM corresponded to half-maximal inhibition in assay [1] (IC50).

In assay [1], `O=C(Nc1ccccc1)Nc1ccc(NCc2cccc(C(=O)O)c2)cc1` yielded an IC50 of 41.6 µM.

With `O=C(Nc1ccccc1)Nc1ccc(NCc2ccccc2O)cc1`, the IC50 in assay [1] is 32.7 µM.

For `COc1cc(CNc2ccc(NC(=O)Nc3ccccc3)cc2)cc(OC)c1`, in assay [1], the IC50 worked out at 18.7 µM.

On to `O=C(Nc1ccccc1)Nc1ccc(NCc2cccc(O)c2)cc1`, for which, in assay [1], half-maximal inhibition (IC50) required 69.9 µM.

In the case of `COC(=O)c1cccc(CNc2ccc(NC(=O)Nc3ccccc3)cc2)c1`, the half-inhibitory concentration (IC50) in assay [1] was determined as 7.21 µM; with HeLa [4], 15 µM. For the same compound, the inhibition result (in assay [2]; in the assay with HeLa [4]) was “Dose-dependent effect” throughout. Further, the result with HeLa [3] and in the assay with HeLa [5] was inactive.

In turn, `COc1cccc(CNc2ccc(NC(=O)Nc3ccccc3)cc2)c1OC` showed an IC50 in assay [1] of 8.62 µM.

As to `O=C(Nc1ccccc1)Nc1ccc(NCc2ccccc2C(=O)O)cc1`, in assay [1], the IC50 amounted to 51.7 µM.

In the case of `COc1cccc(OC)c1CNc1ccc(NC(=O)Nc2ccccc2)cc1`, in assay [1], the IC50 is 39.1 µM.

One may read the IC50 as the concentration at which inhibition is half-maximal.

(Values after ChEMBL document CHEMBL1781967, “1-[4-(N-Benzylamino)phenyl]-3-phenylurea derivatives as a new class of hypoxia-inducible factor-1alpha inhibitors” (Bioorg Med Chem Lett, 2009).)
